We go through four compounds from ChEMBL document CHEMBL3232931 (J Med Chem, 2014).

A value given as a limit tells only on which side of the number the result lay.

Assay [1] addresses Ubiquitin carboxyl-terminal hydrolase 20 (Homo sapiens, UniProt Q9Y2K6). Briefly: Inhibition of human USP20 using Ub-rhodamine 110 as substrate at 31 uM.
The subject of assay [2] is SARS-CoV. The experiment in a line: Antiviral activity against SARS coronavirus infected in african green monkey Vero E6 cells assessed as cell viability after 48 hrs by Cell Titer-Glo luminescent assay. Format: functional, organism-based. Particulars: Severe acute respiratory syndrome-related coronavirus; call rule not given here.
Assay [3] concerns the target T1, Ubiquitin carboxyl-terminal hydrolase isozyme L1 (Homo sapiens, UniProt P09936).
T1 sequence (P09936 whole entry): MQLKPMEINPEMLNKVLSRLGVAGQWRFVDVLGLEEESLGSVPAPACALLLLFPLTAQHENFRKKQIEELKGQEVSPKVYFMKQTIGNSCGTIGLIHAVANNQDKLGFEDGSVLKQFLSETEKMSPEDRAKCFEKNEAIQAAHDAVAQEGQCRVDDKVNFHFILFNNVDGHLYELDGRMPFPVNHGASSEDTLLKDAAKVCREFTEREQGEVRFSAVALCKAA
Briefly: Inhibition of human UCHL1.

The target in assay [4] is T2, Cathepsin K (Homo sapiens, UniProt P43235).
T2 sequence (P43235 whole entry): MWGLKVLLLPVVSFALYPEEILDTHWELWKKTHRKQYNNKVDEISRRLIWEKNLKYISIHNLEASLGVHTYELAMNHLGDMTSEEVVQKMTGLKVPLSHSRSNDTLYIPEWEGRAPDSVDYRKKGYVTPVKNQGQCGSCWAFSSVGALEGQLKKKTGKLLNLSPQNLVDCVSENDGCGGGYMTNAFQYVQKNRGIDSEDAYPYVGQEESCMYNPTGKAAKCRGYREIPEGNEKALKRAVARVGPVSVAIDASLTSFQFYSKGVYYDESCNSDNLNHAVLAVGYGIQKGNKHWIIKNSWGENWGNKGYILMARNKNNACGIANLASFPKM
The experiment in a line: Inhibition of human cathepsin K using fluorogenic peptide as substrate.

Chain of Ubiquitin carboxyl-terminal hydrolase 20 (Q9Y2K6 whole entry): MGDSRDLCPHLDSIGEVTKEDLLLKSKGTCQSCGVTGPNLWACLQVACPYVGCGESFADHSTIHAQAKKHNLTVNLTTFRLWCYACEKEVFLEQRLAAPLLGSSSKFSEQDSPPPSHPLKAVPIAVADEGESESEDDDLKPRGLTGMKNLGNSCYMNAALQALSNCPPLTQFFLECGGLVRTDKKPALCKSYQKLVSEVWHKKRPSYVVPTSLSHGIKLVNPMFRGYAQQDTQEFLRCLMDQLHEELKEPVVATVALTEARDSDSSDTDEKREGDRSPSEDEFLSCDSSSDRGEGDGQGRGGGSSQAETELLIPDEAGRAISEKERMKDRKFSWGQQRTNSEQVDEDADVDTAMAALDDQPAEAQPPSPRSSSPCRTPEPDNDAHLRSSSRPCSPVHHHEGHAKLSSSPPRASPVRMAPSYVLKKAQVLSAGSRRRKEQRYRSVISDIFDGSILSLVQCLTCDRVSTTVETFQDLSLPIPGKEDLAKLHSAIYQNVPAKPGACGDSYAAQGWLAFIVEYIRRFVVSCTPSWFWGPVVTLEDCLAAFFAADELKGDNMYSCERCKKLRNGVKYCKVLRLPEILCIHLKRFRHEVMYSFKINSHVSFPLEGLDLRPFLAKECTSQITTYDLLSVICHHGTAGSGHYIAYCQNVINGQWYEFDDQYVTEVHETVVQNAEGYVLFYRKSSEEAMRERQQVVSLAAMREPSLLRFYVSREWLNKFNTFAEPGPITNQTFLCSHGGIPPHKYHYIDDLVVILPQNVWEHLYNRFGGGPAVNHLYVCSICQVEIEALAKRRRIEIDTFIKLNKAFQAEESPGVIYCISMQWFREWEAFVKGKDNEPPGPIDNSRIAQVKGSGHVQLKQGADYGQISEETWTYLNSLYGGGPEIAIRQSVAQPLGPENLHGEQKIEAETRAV

Consider `CC(=O)Nc1cccc(CNC(=O)C2CCN([C@H](C)c3cccc4ccccc34)CC2)c1`, for which the inhibition in assay [1] was determined as 10%. Also, the EC50 in assay [2] was determined as 8.3 µM. Moreover, the IC50 result in assay [3] and in assay [4] was “Not Active” each time.
In assay [1], `C[C@H](c1cccc2ccccc12)N1CCC(C(=O)NCc2ccc(F)cc2)CC1` had an inhibition of 10%. The EC50 in assay [2] was 11.6 µM. In addition, the IC50 entry in assay [3] and in assay [4] was “Not Active” each time.
Compound `C[C@H](c1cccc2ccccc12)N1CCC(C(=O)NCc2cccc(F)c2)CC1` yielded an inhibition in assay [1] of 10%. Also, the half-maximal effective concentration (EC50) in assay [2] came out at 5.4 µM. In addition, the IC50 entry in assay [3] and in assay [4] was “Not Active” each time.
As to `C[C@H](c1cccc2ccccc12)N1CCC(C(=O)NCc2ccc3c(c2)OCO3)CC1`, in assay [1], the inhibition was < 10%. In addition, the EC50 in assay [2] amounted to 12.8 µM. Moreover, the IC50 entry in assay [3] and in assay [4] was “Not Active” throughout.
